Assay results from EP0252525B1, “Alpha-amylase assay using modified oligosaccharide and process for producing said modified oligosaccharide” (WAKO PURE CHEMICAL INDUSTRIES, LTD, priority 1986, dated 1988).

What was measured:
Assay type in all cases: biochemical
HSA = molecular target: T1, HSA (Homo sapiens, UniProt P0DUB6); experiment: Binding mode (distribution of hydrolysis products) by HPLC; settings: for Hydrolysis product G2P: share of product G2P; for Hydrolysis product G3P: share of product G3P; for Hydrolysis product G4P: share of product G4P; for Hydrolysis product GP: share of product GP
T1 sequence (P0DUB6 16-511): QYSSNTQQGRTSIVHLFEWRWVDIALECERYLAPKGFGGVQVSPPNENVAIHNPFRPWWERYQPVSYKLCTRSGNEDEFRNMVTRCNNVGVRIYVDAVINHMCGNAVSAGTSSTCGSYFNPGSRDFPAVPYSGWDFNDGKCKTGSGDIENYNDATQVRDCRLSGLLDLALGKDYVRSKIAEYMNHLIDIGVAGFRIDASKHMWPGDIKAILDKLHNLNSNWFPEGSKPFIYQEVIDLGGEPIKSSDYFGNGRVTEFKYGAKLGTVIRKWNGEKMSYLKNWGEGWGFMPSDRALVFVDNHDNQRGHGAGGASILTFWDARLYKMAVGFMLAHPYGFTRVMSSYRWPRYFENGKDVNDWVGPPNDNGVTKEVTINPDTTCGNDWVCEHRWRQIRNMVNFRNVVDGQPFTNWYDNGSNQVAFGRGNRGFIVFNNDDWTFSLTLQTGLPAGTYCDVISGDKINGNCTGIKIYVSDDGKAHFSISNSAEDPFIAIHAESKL
Experimental: (§1) The binding mode of each substrate were measured with high-performance liquid chromatography (HPLC) as described above.

HPA = molecular target: T2, HPA (Homo sapiens, UniProt P04746); experiment: as above; settings: for Hydrolysis product G2P: share of product G2P; for Hydrolysis product G3P: share of product G3P; for Hydrolysis product G4P: share of product G4P; for Hydrolysis product GP: share of product GP
T2 sequence (P04746 16-511): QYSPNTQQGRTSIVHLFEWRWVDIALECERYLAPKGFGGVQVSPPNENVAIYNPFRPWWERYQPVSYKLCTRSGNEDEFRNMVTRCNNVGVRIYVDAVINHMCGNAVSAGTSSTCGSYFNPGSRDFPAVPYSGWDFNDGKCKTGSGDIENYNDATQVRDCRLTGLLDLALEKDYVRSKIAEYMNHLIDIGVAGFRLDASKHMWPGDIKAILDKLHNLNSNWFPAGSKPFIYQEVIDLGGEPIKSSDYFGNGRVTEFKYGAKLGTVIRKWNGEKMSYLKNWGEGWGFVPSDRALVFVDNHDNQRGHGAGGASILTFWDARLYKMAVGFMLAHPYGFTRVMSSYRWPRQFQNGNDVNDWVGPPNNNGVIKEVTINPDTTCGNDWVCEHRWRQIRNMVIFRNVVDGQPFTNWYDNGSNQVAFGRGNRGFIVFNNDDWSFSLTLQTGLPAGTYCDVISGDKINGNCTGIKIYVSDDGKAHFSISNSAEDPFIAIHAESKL
Experimental: as §1

[1] = molecular target: T3, human salivary α-amylase (HSA) (Homo sapiens, UniProt P0DUB6); experiment: Hydrolysis rate of substrates by α-amylase (relative to G5P); settings: substrate 1.0 mM, pH 7, value of G5P taken as 1
T3 sequence (P0DUB6 16-511): T1 sequence (P0DUB6 16-511)
Experimental: (§2) The above-mentioned advantages can be shown by using the following oligosaccharides: [drawing 6] n = 2: BG4P n = 3: BG5P (the present invention) n = 4: BG6P n = 5: BG7P [drawing 7] n = 2: G4P n = 3: G5P (standard) n = 4: G6P n = 5: G7P [drawing 8] n = 2: BDG4P n = 3: BDG5P n = 4: BDG6P n = 5: BDG7P The hydrolysis rate is measured by using human pancreatic α-amylase (HPA) or human salivary α-amylase (HSA) for each substrate (1.0 mM) at pH 7, and evaluating by means of relative values by taking the value of G5P as 1.

[2] = molecular target: T4, human pancreatic α-amylase (HPA) (Homo sapiens, UniProt P04746); experiment: as above; settings: substrate 1.0 mM, pH 7, value of G5P taken as 1
T4 sequence (P04746 16-511): T2 sequence (P04746 16-511)
Experimental: as §2

Row | Compound | Hydrolysis product G2P (HSA) [%] | Hydrolysis product G3P (HSA) [%] | Hydrolysis product G4P (HSA) [%] | Hydrolysis product GP (HSA) [%] | Hydrolysis product G2P (HPA) [%] | Hydrolysis product G3P (HPA) [%] | Hydrolysis product G4P (HPA) [%] | Hydrolysis product GP (HPA) [%] | hydrolysis rate (relative value) [1] | hydrolysis rate (relative value) [2] | Hydrolysis product (result in words) (HSA) | Hydrolysis product (result in words) (HPA)
1 | O=[N+]([O-])c1ccc(O[C@H]2O[C@H](CO)[C@@H](O[C@H]3O[C@H](CO)[C@@H](O[C@H]4O[C@H](CO)[C@@H](O[C@H]5O[C@H](COCc6ccccc6)[C@@H](O)[C@H](O)[C@H]5O)[C@H](O)[C@H]4O)[C@H](O)[C@H]3O)[C@H](O)[C@H]2O)cc1 [BG4P] | 10 | 0 | 0 | 90 | 8 | 0 | 0 | 92 | 0.60 | 0.55 | – | –
2 | O=[N+]([O-])c1ccc(O[C@H]2O[C@H](CO)[C@@H](O[C@H]3O[C@H](CO)[C@@H](O[C@H]4O[C@H](CO)[C@@H](O[C@H]5O[C@@H]6COC(c7ccccc7)O[C@H]6[C@H](O)[C@H]5O)[C@H](O)[C@H]4O)[C@H](O)[C@H]3O)[C@H](O)[C@H]2O)cc1 (some centres unmarked) [BDG4P] | – | – | – | – | – | – | – | – | 0 | 0 | Not hydrolyzed | Not hydrolyzed
3 | O=[N+]([O-])c1ccc(O[C@H]2O[C@H](CO)[C@@H](O[C@H]3O[C@H](CO)[C@@H](O[C@H]4O[C@H](CO)[C@@H](O[C@H]5O[C@H](CO)[C@@H](O[C@H]6O[C@H](CO)[C@@H](O[C@H]7O[C@@H]8COC(c9ccccc9)O[C@H]8[C@H](O)[C@H]7O)[C@H](O)[C@H]6O)[C@H](O)[C@H]5O)[C@H](O)[C@H]4O)[C@H](O)[C@H]3O)[C@H](O)[C@H]2O)cc1 (some centres unmarked) [BDG6P] | 66 | 10 | 0 | 24 | 73 | 12 | 0 | 15 | 0.5 | 0.4 | – | –

Results, then the compound that gave them:

Row | Hydrolysis product G2P (HSA) [%] | Hydrolysis product G3P (HSA) [%] | Hydrolysis product G4P (HSA) [%] | Hydrolysis product GP (HSA) [%] | Hydrolysis product G2P (HPA) [%] | Hydrolysis product G3P (HPA) [%] | Hydrolysis product G4P (HPA) [%] | Hydrolysis product GP (HPA) [%] | hydrolysis rate (relative value) [1] | hydrolysis rate (relative value) [2] | Hydrolysis product (result in words) (HSA) | Hydrolysis product (result in words) (HPA) | Compound
4 | 74 | 0 | 0 | 26 | 55 | 0 | 0 | 45 | 0.75 | 0.70 | – | – | O=[N+]([O-])c1ccc(O[C@H]2O[C@H](CO)[C@@H](O[C@H]3O[C@H](CO)[C@@H](O[C@H]4O[C@H](CO)[C@@H](O[C@H]5O[C@H](CO)[C@@H](O)[C@H](O)[C@H]5O)[C@H](O)[C@H]4O)[C@H](O)[C@H]3O)[C@H](O)[C@H]2O)cc1 [Substrate G4P]
5 | 29 | 68 | 0 | 3 | 23 | 73 | 0 | 4 | 1.4 | 1.4 | – | – | O=[N+]([O-])c1ccc(O[C@H]2O[C@H](CO)[C@@H](O[C@H]3O[C@H](CO)[C@@H](O[C@H]4O[C@H](CO)[C@@H](O[C@H]5O[C@H](CO)[C@@H](O[C@H]6O[C@H](CO)[C@@H](O[C@H]7O[C@H](COCc8ccccc8)[C@@H](O)[C@H](O)[C@H]7O)[C@H](O)[C@H]6O)[C@H](O)[C@H]5O)[C@H](O)[C@H]4O)[C@H](O)[C@H]3O)[C@H](O)[C@H]2O)cc1 [BG6P]
